For experiment [1], the target named is T1, recombinant human-GR (GR) (Homo sapiens, UniProt P04150).
T1 construct: purchased PanVera
T1 sequence (P04150 1-777): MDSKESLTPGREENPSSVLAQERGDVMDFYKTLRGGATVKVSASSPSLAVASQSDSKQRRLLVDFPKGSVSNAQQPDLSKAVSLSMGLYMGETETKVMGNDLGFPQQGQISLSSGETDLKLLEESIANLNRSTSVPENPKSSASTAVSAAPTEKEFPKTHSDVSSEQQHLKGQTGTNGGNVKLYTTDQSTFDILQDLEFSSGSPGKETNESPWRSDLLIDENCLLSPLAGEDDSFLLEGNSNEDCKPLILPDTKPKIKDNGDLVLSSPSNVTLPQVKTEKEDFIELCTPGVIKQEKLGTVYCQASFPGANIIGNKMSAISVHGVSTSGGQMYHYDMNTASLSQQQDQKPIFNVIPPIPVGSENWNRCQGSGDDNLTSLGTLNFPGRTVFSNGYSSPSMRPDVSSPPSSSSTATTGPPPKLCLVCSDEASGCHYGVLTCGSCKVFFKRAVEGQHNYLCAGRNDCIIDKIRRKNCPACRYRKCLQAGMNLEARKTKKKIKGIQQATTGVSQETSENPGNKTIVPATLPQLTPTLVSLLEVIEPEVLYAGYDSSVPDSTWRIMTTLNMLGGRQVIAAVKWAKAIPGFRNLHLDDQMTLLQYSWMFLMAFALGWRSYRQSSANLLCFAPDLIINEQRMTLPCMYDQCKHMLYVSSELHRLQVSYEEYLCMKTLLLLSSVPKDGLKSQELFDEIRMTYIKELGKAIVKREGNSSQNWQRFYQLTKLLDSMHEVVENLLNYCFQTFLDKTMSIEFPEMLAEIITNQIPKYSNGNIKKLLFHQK
The experiment is described as follows: Glucocorticoid Receptor Competitor Assay kit (PanVera), fluorescence polarisation binding. As to conditions: fluorescence polarisation competition with fluormone GS1 1 nM, GR 4 nM, 90 minutes room temperature. The procedure: The affinity of compounds was tested using a Glucocorticoid Receptor Competitor Assay kit (PanVera®). Components of the kit were thawed from −80° C. on ice (Fluormone GS1, recombinant human-GR (GR)) or at room temperature (GR screening buffer, stabilising peptide and DTT). 10 mM test compounds were manually diluted to 20 μM then serially diluted to a final concentration range of 10 μM to 0.1 nM using the BioMek 2000 (Beckman-Coulter) into a black walled 384 welled plate (Matrix technologies). In the following order: fluormone GS1 (1 nM final concentration) is added to all wells excluding the buffer control wells, GR (4 nM final concentration) is added to all wells except minimum and buffer control wells, cortisol (10 μM final concentration) is added to fluormone GS1 control wells only, buffer is added to all wells to a final volume of 40 μl. The plate is covered and incubated at room temperature with agitation for 90 minutes. Readings were taken using the Analyst (LJL) in fluorescence polarisation reading mode. The MilliP ratio is calculated from cps readings obtained in parallel and perpendicular mode. The percent effect of the bound ligand is calculated at each concentration and the dose response curves plotted allowing the EC50 to be calculated. […]
(Fluorescence polarisation rises when a labelled molecule tumbles more slowly, as on binding a larger partner.)

The test system of the next experiment is LPS-induced TNFα. The experiment is described as follows: Inhibition of LPS-induced TNFα in serum of mice. It is filed as in vivo. As to conditions: Mus musculus, read-out: ED50 for inhibition of LPS-induced TNFα. Here is the method: The potency of compounds to inhibit inflammation was quantified in a model in which mice were treated with lipopolysaccharide (LPS). Anti-inflammatory effects were quantified as inhibition of LPS-induced TNFα (S. R. Hyde & R. E. McCallum, Infection & Immunity, 60; 976-982 (1992)). Mice were treated i.p. with 0.5 mg/kg LPS. […] 1½ hours after LPS induction, serum was collected and mice were sacrificed. TNFα levels in serum were quantified using a commercially available Elisa-kit according to the descriptions of the supplier.

[2] abbreviates: mice, 0.5 mg/kg LPS i.p., compound oral or subcutaneous 1 hour before LPS, serum 1½ hours after LPS.

pEC50: −log10 of the molar value. Where two headings read alike, the source gives them in different places.

One may read the pEC50 as the EC50 on a negative log10 scale, so that one unit is a factor of ten. The ED50 is the midpoint of the dose-response relation.

On to `CC#C[C@]1(O)CC[C@H]2[C@@H]3CCC4=CC(=O)CCC4=C3[C@@H](c3ccc4c(c3)OCO4)C[C@@]21C`, for which the pEC50 in experiment [1] is 8.00.
Consider `CN1c2ccccc2[C@@H]2C[C@@H](NC(=O)C(F)(F)F)CCN2c2ccc([N+](=O)[O-])cc21` (relative stereo) [Example 2, cis-2,2,2-trifluoro-N-(1,2,3,4,10,14b-hexahydro-10-methyl-8-nitrodibenzo[b,f]pyrido[1,2-d][1,4]diazepin-2-yl)acetamide], for which, in the experiment with LPS-induced TNFα (setting [2]), the ED50 lay in the range of 0.5 to 20 mg/kg.
For `CN1c2ccccc2[C@@H]2C[C@@H](NC(=O)C(F)(F)F)CCN2c2ccc(C#N)cc21` (relative stereo) [Example 3, cis-N-(8-cyano-1,2,3,4,10,14b-hexahydro-10-methyldibenzo[b,f]pyrido[1,2-d][1,4]diazepin-2-yl)-2,2,2-trifluoroacetamide], the ED50 in the experiment on LPS-induced TNFα (setting [2]) fell in the range of 0.5 to 20 mg/kg.
For `CN1c2ccccc2[C@@H]2C[C@@H](NC(=O)C(F)(F)F)CCN2c2ccc(C(=O)Nc3ccccc3)cc21` (relative stereo) [Example 4, cis-1,2,3,4,10,14b-hexahydro-10-methyl-N-phenyl-2-(2,2,2-trifluoroacetylamino)dibenzo[b,f]pyrido[1,2-d][1,4]diazepine-8-carboxamide], in the experiment with LPS-induced TNFα (setting [2]), the ED50 was 0.5 to 20 mg/kg.
In the case of `CN1c2ccccc2[C@@H]2C[C@@H](NC(=O)C(Cl)Cl)CCN2c2ccc(C#N)cc21` (relative stereo) [Example 5, cis-2,2-dichloro-N-(8-cyano-1,2,3,4,10,14b-hexahydro-10-methyldibenzo-[b,f]pyrido[1,2-d][1,4]diazepin-2-yl)acetamide], in the experiment with LPS-induced TNFα (setting [2]), the ED50 lay within 0.5 to 20 mg/kg.
As for `CN1c2ccccc2[C@@H]2C[C@@H](NC(=O)C(F)(F)F)CCN2c2cc(Cl)c(C#N)cc21` (relative stereo) [Example 9, cis-N-(7-chloro-8-cyano-1,2,3,4,10,14b-hexahydro-10-methyl-dibenzo-[b,f]pyrido[1,2-d][1,4]diazepin-2-yl)-2,2,2-trifluoroacetamide], the ED50 in the experiment on LPS-induced TNFα is 0.5 to 20 mg/kg.
For `Cc1nnsc1C(=O)N[C@H]1CCN2c3ccc([N+](=O)[O-])cc3N(C)c3ccccc3[C@@H]2C1` (relative stereo) [Example 31, cis-N-(1,2,3,4,10,14b-hexahydro-10-methyl-8-nitrodibenzo[b,f]pyrido[1,2-d][1,4]diazepin-2-yl)-4-methyl-1,2,3-thiadiazole-5-carboxamide], the ED50 in the experiment on LPS-induced TNFα (setting [2]) lay within 0.5 to 20 mg/kg.
For the compound `C[C@]12C=CC(=O)C=C1CC[C@@H]1[C@@H]2[C@@H](O)C[C@@]2(C)[C@H]1CC[C@]2(O)C(=O)CO` [prednisolone, reference compound], the ED50 in the experiment with LPS-induced TNFα (setting [2]) worked out at 0.5 mg/kg.

For the origin of these results see patent US8133885B2, “Non steroidal glucocorticoid receptor modulators” (Merck Sharp & Dohme Corp., priority 2005, dated 2012).
